Results on 34 compounds are retold here after patent US11414424B2, “Cardiac sarcomere inhibitors” (Cytokinetics, Inc., priority 2018, dated 2022).

The test system of the assay is bovine cardiac myofibrils. Description: Myofibril assay: PK/LDH-coupled steady-state ATPase activity of skinned bovine cardiac myofibrils. The note with it: Ca2+ activating to 75% of maximal rate. The format is biochemical. Summed up: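 Steady-state ATPase of detergent-skinned bovine left-ventricular myofibrils (1 mg/mL), PK/LDH-coupled NADH read at 340 nm, in PIPES/MgCl2 buffer pH 6.8 with 50 μM ATP, 0.6 mM EGTA and CaCl2 set for 50% or 75% activation. Inhibition of activity measured.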
Take `Cc1ccc(CN2C(=O)CN(c3ncc(Cl)cc3F)C(=O)C2C2COC2)cc1F` (stereo not shown) [Compound 664, 1-(5-chloro-3-fluoropyridin-2-yl)-4-(3-fluoro-4-methylbenzyl)-3-(oxetan-3-yl)piperazine-2,5-dione]: the “CDMF75 IC15” value was found to be 2.9 µM.

With `CCc1ccc(CN2C(=O)CN(c3ncc(Cl)cc3F)C(=O)C2C2COC2)cc1` (stereo not shown) [Compound 665, 1-(5-chloro-3-fluoropyridin-2-yl)-4-(4-ethylbenzyl)-3-(oxetan-3-yl)piperazine-2,5-dione], the “CDMF75 IC15” value was 7.3 µM.

As to `Cc1ccc(CN2C(=O)CN(c3ncc(Cl)cc3F)C(=O)C2C2COC2)cc1` (stereo not shown) [Compound 666, 1-(5-chloro-3-fluoropyridin-2-yl)-4-(4-methylbenzyl)-3-(oxetan-3-yl)piperazine-2,5-dione], the “CDMF75 IC15” value stood at 2.3 µM.

As to `Cc1cc(CN2C(=O)CN(c3ncc(Cl)cc3F)C(=O)C2C2COC2)ccc1F` (stereo not shown) [Compound 667, 1-(5-chloro-3-fluoropyridin-2-yl)-4-(4-fluoro-3-methyl-benzyl)-3-(oxetan-3-yl)-piperazine-2,5-dione], the “CDMF75 IC15” value is 1.1 µM.

Consider `O=C1C(C2COC2)N(Cc2ccc(F)c(Cl)c2)C(=O)CN1c1ncc(Cl)cc1F` (stereo not shown) [Compound 668, 1-(5-chloro-3-fluoropyridin-2-yl)-4-(3-chloro-4-fluorobenzyl)-3-(oxetan-3-yl)piperazine-2,5-dione], for which the “CDMF75 IC15” value was 1.4 µM.

On to `O=C1C(C2CCSCC2)N(Cc2ccc(C(F)(F)F)cc2)C(=O)CN1c1ncc(Cl)cc1F` (stereo not shown) [Compound 687, 1-(5-chloro-3-fluoropyridin-2-yl)-3-(tetrahydro-2H-thiopyran-4-yl)-4-(4-(trifluoromethyl)benzyl)-piperazine-2,5-dione], for which the “CDMF75 IC15” value was 6.2 µM.

In the case of `O=C1C(C2CCOCC2)N(Cc2ccc(C(F)(F)F)cc2)C(=O)CN1c1ncc(Cl)cc1F` (stereo not shown) [Compound 688, 1-(5-chloro-3-fluoropyridin-2-yl)-3-(tetrahydro-2H-pyran-4-yl)-4-(4-(trifluoro-methyl)benzyl)piperazine-2,5-dione], the “CDMF75 IC15” value is 3.7 µM.

On to `O=C1C(C2CCS(=O)(=O)CC2)N(Cc2ccc(C(F)(F)F)cc2)C(=O)CN1c1ncc(Cl)cc1F` (stereo not shown) [Compound 689, 1-(5-chloro-3-fluoropyridin-2-yl)-3-(1,1-dioxidotetra-hydro-2H-thiopyran-4-yl)-4-(4-(trifluoromethyl)-benzyl)piperazine-2,5-dione], for which the “CDMF75 IC15” value is 27.9 µM.

On to `O=C1C(C2COC2)N(Cc2ccc(F)cc2)C(=O)CN1c1ccc(Br)cc1F` (stereo not shown) [Compound 700, 1-(4-bromo-2-fluoro-phenyl)-4-(4-fluorobenzyl)-3-(oxetan-3-yl)piperazine-2,5-dione], for which the “CDMF75 IC15” value was determined as 3.4 µM.

Consider `CC(=O)N1CC2(C1)C(=O)N(c1ccc(-c3ncon3)cc1F)CC(=O)N2Cc1ccc(C(F)(F)F)cc1` [Compound 701, 2-acetyl-8-(2-fluoro-4-(1,2,4-oxadiazol-3-yl)phenyl)-5-(4-(trifluoromethyl)benzyl)-2,5,8-triazaspiro[3.5]nonane-6,9-dione], for which the “CDMF75 IC15” value turned out to be 3.9 µM.

Turning to `CC(=O)N1CC2(C1)C(=O)N(c1ccc(-c3noc(C)n3)cc1F)CC(=O)N2Cc1ccc(C(F)(F)F)cc1` [Compound 702], the “CDMF75 IC15” value is 25.5 µM.

Turning to `N#Cc1ccc(N2CC(=O)N(Cc3ccc(F)cc3)C(C3COC3)C2=O)c(F)c1` (stereo not shown) [Compound 706, 3-fluoro-4-(4-(4-fluoro-benzyl)-3-(oxetan-3-yl)-2,5-dioxopiperazin-1-yl)benzonitrile], the “CDMF75 IC15” value was 4.5 µM.

With `O=C1C(C2COC2)N(Cc2ccc(F)cc2)C(=O)CN1c1ncc(Br)cc1F` (stereo not shown) [Compound 707, 1-(5-bromo-3-fluoropyridin-2-yl)-4-(4-fluorobenzyl)-3-(oxetan-3-yl)piperazine-2,5-dione], the “CDMF75 IC15” value is 2.9 µM.

Take `O=C1C(C2COC2)N(Cc2ccc(Cl)cc2)C(=O)CN1c1ncc(Br)cc1F` (stereo not shown) [Compound 708, 1-(5-bromo-3-fluoropyridin-2-yl)-4-(4-chlorobenzyl)-3-(oxetan-3-yl)piperazine-2,5-dione]: the “CDMF75 IC15” value was found to be 1.4 µM.

Take `O=C1C(C2COC2)N(Cc2ccc(C(F)(F)F)cc2)C(=O)CN1c1ncc(OC(F)F)cc1F` (stereo not shown) [Compound 711, 1-(5-(difluoromethoxy)-3-fluoropyridin-2-yl)-3-(oxetan-3-yl)-4-(4-(trifluoromethyl)benzyl)-piperazine-2,5-dione]: the “CDMF75 IC15” value came to 24.6 µM.

On to `Cc1cc(Cl)cnc1N1CC(=O)N(Cc2ccc(F)cc2)C(C2COC2)C1=O` (stereo not shown) [Compound 714, 1-(5-chloro-3-methylpyridin-2-yl)-4-(4-fluorobenzyl)-3-(oxetan-3-yl)piperazine-2,5-dione], for which the “CDMF75 IC15” value was 12.4 µM.

Take `Cc1cc(Cl)cnc1N1CC(=O)N(Cc2ccc(F)c(Cl)c2)C(C2COC2)C1=O` (stereo not shown) [Compound 717, 1-(5-chloro-3-methyl-pyridin-2-yl)-4-(3-chloro-4-fluorobenzyl)-3-(oxetan-3-yl)piperazine-2,5-dione]: the “CDMF75 IC15” value amounted to 7.3 µM.

As to `Cc1cc(Cl)cnc1N1CC(=O)N(Cc2ccc(F)c(F)c2)C(C2COC2)C1=O` (stereo not shown) [Compound 720, 1-(5-chloro-3-methyl-pyridin-2-yl)-4-(3,4-difluorobenzyl)-3-(oxetan-3-yl)piperazine-2,5-dione], the “CDMF75 IC15” value amounted to 9.2 µM.

For the compound `C=Cc1cnc(N2CC(=O)N(Cc3ccc(Cl)cc3)C(C3COC3)C2=O)c(F)c1` (stereo not shown) [Compound 723, 4-(4-chlorobenzyl)-1-(3-fluoro-5-vinylpyridin-2-yl)-3-(oxetan-3-yl)piperazine-2,5-dione], the “CDMF75 IC15” value was 7.1 µM.

In the case of `Cc1ccc(CN2C(=O)CN(c3ncc(Cl)cc3C)C(=O)C2C2COC2)cc1F` (stereo not shown) [Compound 724, 1-(5-chloro-3-methyl-pyridin-2-yl)-4-(3-fluoro-4-methylbenzyl)-3-(oxetan-3-yl)piperazine-2,5-dione], the “CDMF75 IC15” value turned out to be 13.8 µM.

As to `Cc1cc(CN2C(=O)CN(c3ncc(Cl)cc3C)C(=O)C2C2COC2)ccc1F` (stereo not shown) [Compound 727, 1-(5-chloro-3-methyl-pyridin-2-yl)-4-(4-fluoro-3-methylbenzyl)-3-(oxetan-3-yl)piperazine-2,5-dione], the “CDMF75 IC15” value was determined as 3.2 µM.

For the compound `Cc1cc(Cl)cnc1N1CC(=O)N(Cc2ccc(Cl)c(F)c2)C(C2COC2)C1=O` (stereo not shown) [Compound 730, 4-(4-chloro-3-fluoro-benzyl)-1-(5-chloro-3-methylpyridin-2-yl)-3-(oxetan-3-yl)-piperazine-2,5-dione], the “CDMF75 IC15” value is 3.4 µM.

As for `Cc1ccc(CN2C(=O)CN(c3ncc(Cl)cc3C)C(=O)C2C2COC2)cc1` (stereo not shown) [Compound 733, 1-(5-chloro-3-methyl-pyridin-2-yl)-4-(4-methyl-benzyl)-3-(oxetan-3-yl)-piperazine-2,5-dione], the “CDMF75 IC15” value stood at 11.8 µM.

Turning to `N#Cc1cnc(N2CC(=O)N(Cc3ccc(C(F)(F)F)cc3)C(C3COC3)C2=O)c(F)c1` (stereo not shown) [Compound 736, 5-fluoro-6-(3-(oxetan-3-yl)-2,5-dioxo-4-(4-(trifluoromethyl)benzyl)-piperazin-1-yl)nicotinonitrile], the “CDMF75 IC15” value worked out at 2.0 µM.

Regarding `O=C1C([C@H]2C[C@@H](O)C2)N(Cc2ccc(C(F)(F)F)cc2)C(=O)CN1c1ncc(Cl)cc1F` (stereo partly shown) [Compound 739, 1-(5-chloro-3-fluoropyridin-2-yl)-3-((1 s,3s)-3-hydroxycyclobutyl)-4-(4-(trifluoromethyl)benzyl)piperazine-2,5-dione], the “CDMF75 IC15” value was 2.2 µM.

As to `O=C1C(C2CC(O)C2)N(Cc2ccc(C(F)(F)F)cc2)C(=O)CN1c1ncc(Cl)cc1F` (stereo not shown) [Compound 740, 1-(5-chloro-3-fluoropyridin-2-yl)-3-(3-hydroxycyclobutyl)-4-(4-(trifluoromethyl)benzyl)piperazine-2,5-dione], the “CDMF75 IC15” value came out at 2.3 µM.

Consider `O=C1C(C2COC2)N(Cc2ccc(C(F)(F)F)cc2)C(=O)CN1c1ccc(Cl)c(F)c1` (stereo not shown) [Compound 747, 1-(4-chloro-3-fluorophenyl)-3-(oxetan-3-yl)-4-(4-(trifluoromethyl)benzyl)-piperazine-2,5-dione], for which the “CDMF75 IC15” value amounted to 3.7 µM.

Consider `O=C1[C@H](C2CC2)N(Cc2ccc(C(F)(F)F)cc2)C(=O)CN1c1ncc(Cl)cc1F` [Compound 750, (S)-1-(5-chloro-3-fluoropyridin-2-yl)-3-cyclopropyl-4-(4-(trifluoromethyl)benzyl)piperazine-2,5-dione], for which the “CDMF75 IC15” value amounted to 1.0 µM.

`O=C1[C@H](C2CC2)N(Cc2ccc(F)cc2)C(=O)CN1c1ncc(Cl)cc1F` [Compound 751, (S)-1-(5-chloro-3-fluoro-pyridin-2-yl)-3-cyclo-propyl-4-(4-fluorobenzyl)-piperazine-2,5-dione]: the “CDMF75 IC15” value came to 1.3 µM.

For `Cc1ccc(CN2C(=O)CN(c3ncc(Cl)cc3F)C(=O)C23COC3)cc1` [Compound 757, 8-(5-chloro-3-fluoropyrldin-2-yl)-5-(4-methylbenzyl)-2-oxa-5,8-diazaspiro[3.5]-nonane-6,9-dione], the “CDMF75 IC15” value is 7.2 µM.

With `COc1cnc(N2CC(=O)N(Cc3ccc(C)cc3)C(C3COC3)C2=O)c(F)c1` (stereo not shown) [Compound 758, 1-(3-fluoro-5-methoxy-pyridin-2-yl)-4-(4-methyl-benzyl)-3-(oxetan-3-yl)-piperazine-2,5-dione], the “CDMF75 IC15” value is 19.4 µM.

In the case of `COc1cnc(N2CC(=O)N(Cc3ccc(C)c(F)c3)C(C3COC3)C2=O)c(F)c1` (stereo not shown) [Compound 761, 4-(3-fluoro-4-methyl-benzyl)-1-(3-fluoro-5-methoxypyridin-2-yl)-3-(oxetan-3-yl)piperazine-2,5-dione], the “CDMF75 IC15” value worked out at 16.3 µM.

With `O=C1CN(c2ncc(Cl)cc2F)C(=O)C2(CC(O)C2)N1Cc1ccc(F)cc1` (stereo not shown) [Compound 764, 8-(5-chloro-3-fluoropyridin-2-yl)-5-(4-fluorobenzyl)-2-hydroxy-5,8-diazaspiro-[3.5]nonane-6,9-dione], the “CDMF75 IC15” value came out at 1.6 µM.

Take `O=C1CN(c2ncc(Cl)cc2F)C(=O)C2(COC2)N1Cc1ccc(C(F)F)cc1` [Compound 768, 8-(5-chloro-3-fluoropyridin-2-yl)-5-(4-(difluoromethyl)-benzyl)-2-oxa-5,8-diazaspiro[3.5]nonane-6,9-dione]: the “CDMF75 IC15” value was 4.3 µM.
